Experimental data: patent publication US20260265265A1, “NOVEL BENZIMIDAZOLONE DERIVATIVE COMPOUND AS AUTOTAXIN INHIBITOR” (LG CHEM, LTD., priority 2023, published 2026)

Biological target: T1, Recombinant Human ENPP-2/Autotaxin (Homo sapiens, UniProt Q13822)
T1 construct: purchased R&D systems 5255-EN
Test: LysoPLD activity measurement (autotaxin enzyme inhibition, choline release, TOOS reagent)
Format: biochemical
Conditions: LysoPLD inhibitory activity; substrate 14:0 LysoPC; absorbance at 555 nm
Summary of the method: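 Enzyme and compound were preincubated for 30 min before adding 14:0 LysoPC substrate, diluted to 300 μM, for 90 minutes at 37° C. The choline product was quantified colorimetrically with TOOS reagent. Wells without compound held 1% DMSO.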

SMILES	IC50 [nM]
O=C(O)c1cc(Cn2c(=O)n(-c3ccc(N4CCOCC4)cc3)c3c(F)c(Cl)ccc32)on1 [Example 198, 5-((5-chloro-4-fluoro-3-(4-morpholinophenyl)-2-oxo-2,3-dihydro-1H-benzo[d]imidazol-1-yl)methyl)isoxazole-3-carboxylic acid]	100 to 1000
O=C(O)c1cccc(Cn2c(=O)n(-c3ccc(C(F)(F)F)cc3)c3cc(Cl)ccc32)c1 [Example 4, 3-((5-chloro-2-oxo-3-(4-(trifluoromethyl)phenyl)-2,3-dihydro-1H-benzo[d]imidazol-1-yl)methyl)benzoic acid]	100 to 1000
O=C(O)c1cccc(C2(n3c(=O)n(-c4ccc(N5CCOCC5)cc4)c4cc(OC(F)(F)F)ccc43)CC2)c1 [Example 209, 3-(1-(3-(4-morpholinophenyl)-2-oxo-5-(trifluoromethoxy)-2,3-dihydro-1H-benzo[d]imidazol-1-yl)cyclopropyl)benzoic acid]	10 to 100
O=C(O)c1cccc(Cn2c(=O)n(-c3ccc(N4CCOCC4)cc3)c3c(F)c(Cl)ccc32)c1 [Example 24, 3-((5-chloro-4-fluoro-3-(4-morpholinophenyl)-2-oxo-2,3-dihydro-1H-benzo[d]imidazol-1-yl)methyl)benzoic acid]	10 to 100
CN(C)c1ccc(-n2c(=O)n(Cc3cccc(C(=O)O)c3)c3cc(Cl)cc(F)c32)cc1 [Example 37, 3-((6-chloro-3-(4-(dimethylamino)phenyl)-4-fluoro-2-oxo-2,3-dihydro-1H-benzo[d]imidazol-1-yl)methyl)benzoic acid]	100 to 1000
Cc1ccc2c(n1)n(-c1ccc(N(C)C)cc1)c(=O)n2Cc1cccc(C(=O)O)c1 [Example 168, 3-((3-(4-(dimethylamino)phenyl)-5-methyl-2-oxo-2,3-dihydro-1H-imidazo[4,5-b]pyridin-1-yl)methyl)benzoic acid]	100 to 1000
CS(=O)(=O)Nc1ccc(-n2c(=O)n(Cc3cccc(C(=O)O)c3F)c3ccc(Cl)cc32)cc1 [Example 41, 3-((5-chloro-3-(4-(methylsulfonamido)phenyl)-2-oxo-2,3-dihydro-1H-benzo[d]imidazol-1-yl)methyl)-2-fluorobenzoic acid]	10 to 100
O=C(O)c1cccc(C2(n3c(=O)n(-c4ccc(C56CC7CC(CC(C7)C5)C6)cc4)c4cc(Cl)ccc43)CC2)c1 [Example 179, 3-(1-(3-(4-((3r,5r,7r)-adamantan-1-yl)phenyl)-5-chloro-2-oxo-2,3-dihydro-1H-benzo[d]imidazol-1-yl)cyclopropyl)benzoic acid]	100 to 1000
CC(C)(C)OC(=O)N1CCC2(CC1)CN(c1ccc(-n3c(=O)n(C4(c5cc(F)cc(C(=O)O)c5)CC4)c4ccc(Cl)cc43)cc1)C2 [Example 195, 3-(1-(3-(4-(7-(tert-butoxycarbonyl)-2,7-diazaspiro[3.5]nonan-2-yl)phenyl)-5-chloro-2-oxo-2,3-dihydro-1H-benzo[d]imidazol-1-yl)cyclopropyl)-5-fluorobenzoic acid]	10 to 100
C[C@H]1COCCN1C(=O)Cc1ccc(-n2c(=O)n(C3(c4cccc(C(=O)O)c4)CC3)c3ccc(Cl)cc32)cc1 [Example 177, (S)-3-(1-(5-chloro-3-(4-(2-(3-methylmorpholino)-2-oxoethyl)phenyl)-2-oxo-2,3-dihydro-1H-benzo[d]imidazol-1-yl)cyclopropyl)benzoic acid]	10 to 100
O=C(O)c1cccc(Cn2c(=O)n(-c3ccc(N4CC(O)C4)nc3)c3cc(Cl)ccc32)c1 [Example 77, 3-((5-chloro-3-(6-(3-hydroxyazetidin-1-yl)pyridin-3-yl)-2-oxo-2,3-dihydro-1H-benzo[d]imidazol-1-yl)methyl)benzoic acid]	100 to 1000
CN(C)c1ccc(-n2c(=O)n(Cc3cccc(C(=O)O)c3F)c3ccc(Cl)cc32)cc1 [Example 39, 3-((5-chloro-3-(4-(dimethylamino)phenyl)-2-oxo-2,3-dihydro-1H-benzo[d]imidazol-1-yl)methyl)-2-fluorobenzoic acid]	10 to 100
CC(C)Oc1ccc(-n2c(=O)n(Cc3cccc(C(=O)O)c3)c3ccc(Cl)cc32)cc1 [Example 14, 3-((5-chloro-3-(4-isopropoxyphenyl)-2-oxo-2,3-dihydro-1H-benzo[d]imidazol-1-yl)methyl)benzoic acid]	10 to 100
COC1CCN(C(=O)c2ccc(-n3c(=O)n(Cc4cccc(C(=O)O)c4)c4ccc(Cl)cc43)cc2)C1 (stereo not drawn) [Example 59, 3-((5-chloro-3-(4-(3-methoxypyrrolidine-1-carbonyl)phenyl)-2-oxo-2,3-dihydro-1H-benzo[d]imidazol-1-yl)methyl)benzoic acid]	10 to 100

Second part, the compound after the results:

IC50 [nM]	SMILES
< 10	O=C(O)c1cccc(C2(n3c(=O)n(-c4ccc(C(=O)N5CC6(CCOCC6)C5)cc4)c4cc(Cl)cnc43)CC2)c1 [Example 225, 3-(1-(1-(4-(7-oxa-2-azaspiro[3.5]nonane-2-carbonyl)phenyl)-6-chloro-2-oxo-1,2-dihydro-3H-imidazo[4,5-b]pyridin-3-yl)cyclopropyl)benzoic acid]
< 10	CN(C)C(=O)Cc1ccc(-n2c(=O)n(C3(c4cc(F)cc(C(=O)O)c4)CC3)c3ccc(Cl)cc32)cc1 [Example 189, 3-(1-(5-chloro-3-(4-(2-(dimethylamino)-2-oxoethyl)phenyl)-2-oxo-2,3-dihydro-1H-benzo[d]imidazol-1-yl)cyclopropyl)-5-fluorobenzoic acid]
< 10	O=C(O)c1cccc(C2(n3c(=O)n(-c4ccc(C(=O)N5CCCC5)cc4)c4cc(Cl)ccc43)CC2)c1 [Example 63, 3-(1-(5-chloro-2-oxo-3-(4-(pyrrolidine-1-carbonyl)phenyl)-2,3-dihydro-1H-benzo[d]imidazol-1-yl)cyclopropyl)benzoic acid]
10 to 100	O=C(O)c1cccc(Cn2c(=O)n(-c3ccc(N4CCCCC4=O)cc3)c3cc(Cl)ccc32)c1 [Example 28, 3-((5-chloro-2-oxo-3-(4-(2-oxopiperidin-1-yl)phenyl)-2,3-dihydro-1H-benzo[d]imidazol-1-yl)methyl)benzoic acid]
10 to 100	O=C(O)c1cccc(Cn2c(=O)n(-c3ccc(C4CCN(C(=O)C5CC5)CC4)cc3)c3cc(Cl)ccc32)c1 [Example 100, 3-((5-chloro-3-(4-(1-(cyclopropanecarbonyl)piperidin-4-yl)phenyl)-2-oxo-2,3-dihydro-1H-benzo[d]imidazol-1-yl)methyl)benzoic acid]
< 10	CCCn1cc(-c2ccc(-n3c(=O)n(C4(c5cccc(C(=O)O)c5)CC4)c4ncc(Cl)cc43)cc2)cn1 [Example 270, 3-(1-(6-chloro-2-oxo-1-(4-(1-propyl-1H-pyrazol-4-yl)phenyl)-1,2-dihydro-3H-imidazo[4,5-b]pyridin-3-yl)cyclopropyl)benzoic acid]
< 10	O=C(O)c1cccc(C2(n3c(=O)n(-c4ccc(N5CCOCC5)cc4)c4cc(Cl)cnc43)CC2)c1 [Example 222, 3-(1-(6-chloro-1-(4-morpholinophenyl)-2-oxo-1,2-dihydro-3H-imidazo[4,5-b]pyridin-3-yl)cyclopropyl)benzoic acid]
< 10	O=C(O)c1cccc(C2(n3c(=O)n(-c4ccc(C(=O)N5CCCC5)cc4)c4cc(Cl)cnc43)CC2)c1F [Example 231, 3-(1-(6-chloro-2-oxo-1-(4-(pyrrolidine-1-carbonyl)phenyl)-1,2-dihydro-3H-imidazo[4,5-b]pyridin-3-yl)cyclopropyl)-2-fluorobenzoic acid]
< 10	CN(C)c1ccc(-n2c(=O)n(C3(c4cc(F)cc(C(=O)O)c4)CC3)c3ccc(Cl)cc32)cc1 [Example 188, 3-(1-(5-chloro-3-(4-(dimethylamino)phenyl)-2-oxo-2,3-dihydro-1H-benzo[d]imidazol-1-yl)cyclopropyl)-5-fluorobenzoic acid]
< 10	O=C(O)c1cccc(C2(n3c(=O)n(-c4ccc(C5(O)CCC5)cc4)c4cc(Cl)ccc43)CC2)c1 [Example 256, 3-(1-(5-chloro-3-(4-(1-hydroxycyclobutyl)phenyl)-2-oxo-2,3-dihydro-1H-benzo[d]imidazol-1-yl)cyclopropyl)benzoic acid]
< 10	CCCn1cc(-c2ccc(-n3c(=O)n(C4(c5cccc(C(=O)O)c5)CC4)c4ccc(Cl)cc43)cc2)cn1 [Example 269, 3-(1-(5-chloro-2-oxo-3-(4-(1-propyl-1H-pyrazol-4-yl)phenyl)-2,3-dihydro-1H-benzo[d]imidazol-1-yl)cyclopropyl)benzoic acid]
< 10	O=C(O)c1cc(F)cc(C2(n3c(=O)n(-c4ccc(C(=O)N5CC6(CCOCC6)C5)cc4)c4cc(Cl)cnc43)CC2)c1 [Example 275, 3-(1-(1-(4-(7-oxa-2-azaspiro[3.5]nonane-2-carbonyl)phenyl)-6-chloro-2-oxo-1,2-dihydro-3H-imidazo[4,5-b]pyridin-3-yl)cyclopropyl)-5-fluorobenzoic acid]
< 10	O=C(O)c1cccc(C2(n3c(=O)n(-c4ccc(C5(O)COC5)cc4)c4cc(Cl)ccc43)CC2)c1 [Example 258, 3-(1-(5-chloro-3-(4-(3-hydroxyoxetan-3-yl)phenyl)-2-oxo-2,3-dihydro-1H-benzo[d]imidazol-1-yl)cyclopropyl)benzoic acid]
< 10	O=C(O)c1cccc(Cn2c(=O)n(-c3ccc(C(=O)N4CCCCC4)cc3)c3cc(Cl)ccc32)c1 [Example 43, 3-((5-chloro-2-oxo-3-(4-(piperidine-1-carbonyl)phenyl)-2,3-dihydro-1H-benzo[d]imidazol-1-yl)methyl)benzoic acid]
< 10	CN(C)c1ccc(-n2c(=O)n(C3(c4cc(F)cc(C(=O)O)c4)CC3)c3ncc(Cl)cc32)cc1 [Example 271, 3-(1-(6-chloro-1-(4-(dimethylamino)phenyl)-2-oxo-1,2-dihydro-3H-imidazo[4,5-b]pyridin-3-yl)cyclopropyl)-5-fluorobenzoic acid]
< 10	CN1CCOc2cc(-n3c(=O)n(C4(c5cc(F)cc(C(=O)O)c5)CC4)c4ccc(Cl)cc43)ccc21 [Example 255, 3-(1-(5-chloro-3-(4-methyl-3,4-dihydro-2H-benzo[b][1,4]oxazin-7-yl)-2-oxo-2,3-dihydro-1H-benzo[d]imidazol-1-yl)cyclopropyl)-5-fluorobenzoic acid]
